# Counter-ions that a name gives are not always drawn. Like-named read-outs stand apart in the source and are kept apart here.
# Assays:
# [1] = tested on: AD-NNOP-SPOR neural organoids; assay: CGS-21680 effect on gene expression in AD-NNOP-SPOR neural organoids (Ampliseq transcriptomics); assay type: cell-based, human
# Experimental: (§1) Neural Organoids derived from induced pluripotent stem cells derived from adult skin cells of AD, ADRD or MED patients were grown in vitro for 4 weeks as previous described in U.S. Pat. No. 11,435,890, incorporated by reference in its entirety herein. Transcriptomic data from these neural organoids were obtained. Differences in expression of 20,814 genes expressed in the human genome were determined between these neural organoids and those from neural organoids from a normal individual human (an individual not having/diagnosed with AD, ADRD, or MED). Detailed data analysis using Gene Card and Pubmed data bases were performed.
# (§2) Human induced pluripotent stem cell-derived neural organoids were generated according to the following protocol, as set forth in U.S. Pat. No. 11,435,890, incorporated by reference in its entirety herein. Briefly, irradiated murine embryonic fibroblasts (MEF) were plated on a gelatin coated substrate in MEF media (Dulbecco's Modified Eagle Medium (DMEM) supplemented with 10% Fetal Bovine Serum, 100 units/ml penicillin, 100 microgram/ml streptomycin, and 0.25 microgram/ml Fungizone) at a density of 2×10^5 cells per well. The seeded plate was incubated at 37° C. overnight.
# In Table 1, the effect of A2A receptor agonist to reverse the aberrant expression of the biomarkers in AD disease was assessed. […] Log2 fold change with a positive value indicates a […] in expression of an AD-NNOP gene when compared to Normal-NNOP and a negative number indicates an increase in gene expression.
# [2] = cited from earlier work
# [3] = tested on: AD-NNOP-APP neural organoids; assay: PF-3845 effect on gene expression in AD-NNOP-APP neural organoids (Ampliseq transcriptomics); assay type: cell-based, human
# Experimental: as §1, with “performed. […] These genes comprise a suite of biomarkers for Alzheimer's disease.” for “performed.”
# as §2
# It is known that FAAH inhibitor PF-3845 will raise endogenous levels of endocannabinoid anandamide receptor agonist anandamide. Consequently, PF-3845 treatment can increase endocannabinoid anandamide receptor activity despite dementia-associated downregulation. […] AD-NNOP-APP neural organoids were incubated with vehicle (0.1% DMSO; control) or PF-3845 dissolved in DMSO at 10 µM for 4 days and harvested for RNA extraction and gene expression analysis by Ampliseq™ (Thermofisher). Log2 fold change with a positive value indicates a […] in expression of an AD-NNOP gene when compared to Normal-NNOP and with a negative number an increase in gene expression. […] The expression of these genes were known to be increased in AD-NNOP-APP compared to normal (data not shown). Thus, PF-3845 or FAAH inhibitor was effective in reverting the biomarkers of AD to normalcy.
# adenosine A2A receptor = conditions: Zochi et al., 1996, cited from earlier work
# [4] = AD-NNOP-SPOR, CGS-21680 1 μM 4 days vs vehicle
# [5] = AD-NNOP-APP >12 weeks in culture, PF-3845 10 µM 4 days vs vehicle (0.1% DMSO), positive = decrease in expression
smiles,measurement,setting,value
"CCNC(=O)[C@H]1O[C@@H](n2cnc3c(N)nc(NCCc4ccc(CCC(=O)O)cc4)nc32)[C@H](O)[C@@H]1O [CGS-21680, 2-p-(2-Carboxyethyl) phenethylamino-5′-N-ethylcarboxamidoadenosine hydrochloride hydrate]",effect on TBX3 expression,"[1]; AD-NNOP SPOR, compared to control treatment",decreased TBX3 expression
same,effect on expression of abnormal AD genes,[1]; [4],invert the expression of the abnormal genes in AD and revert them back to normalcy
same,number of differentially expressed genes vs control group,[1]; [4],2023 genes
same,solubility in 45% (w/v) aq 2-hydroxypropyl-β-cyclodextrin,[2]; 45% (w/v) aq 2-hydroxypropyl-β-cyclodextrin,≤ 20 mg/mL
same,solubility in DMSO,[2],up to 3.4 mg/mL
O=C(Nc1cccnc1)N1CCC(Cc2cccc(Oc3ccc(C(F)(F)F)cn3)c2)CC1 [PF-3845],effect on expression of measured AD biomarker genes,"[3]; AD-NNOP APP, PF-3845 compared to control treatment",expression of the measured genes were decreased
same,ADM log2 Fold Change,[3]; [5],2.14
same,BGN log2 Fold Change,[3]; [5],2.50
same,CD36 log2 Fold Change,[3]; [5],2.86
same,MAP3K19 log2 Fold Change,[3]; [5],2.56
same,SLC16A3 log2 Fold Change,[3]; [5],2.05
same,number of differentially expressed genes vs control group,"[3]; AD-NNOP-APP, PF-3845 10 µM 4 days vs vehicle",2111 genes
"CCNC(=O)[C@H]1O[C@@H](n2cnc3c(N)nc(C#CC[C@H]4CC[C@H](C(=O)OC)CC4)nc32)[C@H](O)[C@@H]1O [apadenoson, methyl (1R,4r)-4-(3-(6-amino-9-((2R,3R,4S,5S)-5-(ethylcarbamoyl)-3,4-dihydroxytetrahydrofuran-2-yl)-9H-purin-2-yl)prop-2-yn-1-yl)cyclohexane-1-carboxylate]",solubility in DMSO,[2]; MedKoo Biosciences,Soluble in DMSO

# — patent US20260224602A1, “METHODS AND PHARMACEUTICAL COMPOSITIONS FOR TREATING DEMENTIA” (Neurxstem, priority 2023, published 2026)
